Measured values taken from patent publication US11505533B2, “Metabolically stable N-acylaminooxadiazoles useful as antibacterial agents” (MICROBIOTIX, INC., priority 2017, dated 2022).

What was measured:
[1] = target: CYP1A2 (Homo sapiens, UniProt P05177)
[2] = target: hERG potassium channel (Homo sapiens, UniProt Q12809)
[3] = target: CYP3A4 (Homo sapiens, UniProt P08684)
CYP3A4, sequence (P08684 whole entry): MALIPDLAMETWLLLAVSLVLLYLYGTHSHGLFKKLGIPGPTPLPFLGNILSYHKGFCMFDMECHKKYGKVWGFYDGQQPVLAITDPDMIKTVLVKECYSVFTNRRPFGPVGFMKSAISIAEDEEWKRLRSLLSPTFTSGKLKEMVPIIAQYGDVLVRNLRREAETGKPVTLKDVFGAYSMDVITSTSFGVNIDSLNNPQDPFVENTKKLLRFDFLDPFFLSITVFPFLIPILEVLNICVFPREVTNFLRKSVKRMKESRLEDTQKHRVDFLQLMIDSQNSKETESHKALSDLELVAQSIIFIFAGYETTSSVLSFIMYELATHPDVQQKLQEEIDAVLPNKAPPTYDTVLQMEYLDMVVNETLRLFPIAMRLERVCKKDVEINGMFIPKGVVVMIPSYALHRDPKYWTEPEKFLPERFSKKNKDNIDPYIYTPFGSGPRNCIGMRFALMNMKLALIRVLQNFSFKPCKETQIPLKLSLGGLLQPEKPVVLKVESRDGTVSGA

CYP1A2, sequence (P05177 whole entry): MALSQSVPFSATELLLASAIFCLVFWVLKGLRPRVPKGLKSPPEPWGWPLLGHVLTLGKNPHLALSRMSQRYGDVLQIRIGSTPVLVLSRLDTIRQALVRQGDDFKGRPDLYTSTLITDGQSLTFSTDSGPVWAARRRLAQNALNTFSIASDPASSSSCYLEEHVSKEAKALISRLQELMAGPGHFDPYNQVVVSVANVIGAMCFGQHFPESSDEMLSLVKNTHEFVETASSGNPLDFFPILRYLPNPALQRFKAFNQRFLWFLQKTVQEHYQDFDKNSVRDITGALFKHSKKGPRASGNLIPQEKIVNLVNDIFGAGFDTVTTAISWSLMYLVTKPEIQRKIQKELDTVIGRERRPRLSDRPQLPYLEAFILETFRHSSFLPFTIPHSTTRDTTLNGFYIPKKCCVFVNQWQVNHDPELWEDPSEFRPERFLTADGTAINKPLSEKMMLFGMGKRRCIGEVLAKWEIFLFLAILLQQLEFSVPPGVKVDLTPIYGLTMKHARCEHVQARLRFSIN
hERG potassium channel, sequence (Q12809 whole entry): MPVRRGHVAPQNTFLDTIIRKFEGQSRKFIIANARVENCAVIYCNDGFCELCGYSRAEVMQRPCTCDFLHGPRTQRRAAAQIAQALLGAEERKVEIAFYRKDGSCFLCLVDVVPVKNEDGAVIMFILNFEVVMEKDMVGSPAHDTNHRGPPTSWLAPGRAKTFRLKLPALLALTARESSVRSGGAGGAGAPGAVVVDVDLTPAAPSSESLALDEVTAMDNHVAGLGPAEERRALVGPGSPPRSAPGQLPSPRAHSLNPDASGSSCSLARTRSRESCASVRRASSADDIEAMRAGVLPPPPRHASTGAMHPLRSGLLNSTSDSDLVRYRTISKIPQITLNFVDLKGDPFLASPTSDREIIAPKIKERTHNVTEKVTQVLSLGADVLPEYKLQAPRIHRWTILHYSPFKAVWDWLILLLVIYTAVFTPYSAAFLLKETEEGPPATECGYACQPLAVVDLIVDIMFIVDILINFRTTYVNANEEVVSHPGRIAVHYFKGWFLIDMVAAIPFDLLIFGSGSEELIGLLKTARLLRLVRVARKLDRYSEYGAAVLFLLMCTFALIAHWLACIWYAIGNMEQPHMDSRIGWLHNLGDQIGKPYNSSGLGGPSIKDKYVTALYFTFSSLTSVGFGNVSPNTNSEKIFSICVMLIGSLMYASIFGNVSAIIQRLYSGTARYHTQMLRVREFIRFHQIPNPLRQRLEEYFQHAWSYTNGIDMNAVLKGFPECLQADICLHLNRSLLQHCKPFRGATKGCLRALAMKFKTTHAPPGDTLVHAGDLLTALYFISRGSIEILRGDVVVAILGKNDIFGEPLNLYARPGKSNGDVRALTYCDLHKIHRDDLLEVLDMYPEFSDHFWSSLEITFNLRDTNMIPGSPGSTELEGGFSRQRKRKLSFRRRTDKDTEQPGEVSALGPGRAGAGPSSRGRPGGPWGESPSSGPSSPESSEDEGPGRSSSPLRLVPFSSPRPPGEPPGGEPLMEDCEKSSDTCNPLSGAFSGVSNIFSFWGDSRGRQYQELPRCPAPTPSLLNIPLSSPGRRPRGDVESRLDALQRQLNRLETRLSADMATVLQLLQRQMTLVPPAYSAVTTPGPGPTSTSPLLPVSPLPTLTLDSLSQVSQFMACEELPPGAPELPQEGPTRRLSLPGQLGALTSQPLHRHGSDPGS

SMILES: O=C(Nc1nnc(-c2ccc(F)cc2)o1)c1ccc(Oc2ccccc2)nc1 [MBX-4237]
- inhibition at 10 µM [1]: 1%
- inhibition at 10 µM [2]: 8%
- inhibition at 10 µM [3]: 6%
